The test system of data set [1] is MDA-CDDP-S4 human in vivo-selected Cisplatin-resistant breast adenocarcinoma cells. Description: MDA-CDDP-S4 Cisplatin-resistant breast adenocarcinoma, fat pad, CB-17 SCID mice, combination with Taxol (2.4). The arrangement: species or system human cells in mice. The conditions noted are these: SEQ ID NO:1 10 mg/kg i.v. every other day, Taxol 10 mg/kg i.p. weekly; for Tumour weight as % of saline control: MDA-CDDP-S4 (breast), Cisplatin resistant, SCID. On the procedure:
BxPC-3 is a gemcitabine resistant call line. […] Gemcitabine was administered intravenously every three days at a dose of 100 mg/kg. Antitumour activities were estimated by the inhibition of tumour volume, which was measured with caliper. Each point represents mean tumour volume calculated from 10 animals per experimental group. […] Hela S3 is a hydroxyurea resistant cell line. […] Hydroxyurea was administered intraperitoneally every day at a dose of 250 mg/kg for 10 days. Cisplatin was administered intravenously once a week for three weeks at a dose of 4 mg/kg. Antitumour activities were estimated by the inhibition of tumour volume, which was measured with caliper. Each point represents mean tumour volume calculated from 10 animals per experimental group. […] Cisplatin was administered intravenously once a week for three weeks at a dose of 4 mg/kg. Taxol was administered intravenously once a week for three weeks at a dose of 10 mg/kg. Antitumour activities were estimated by the inhibition of tumour volume, which was measured with caliper. Each point represents mean tumour volume calculated from 10 animals per experimental group. […] Taxol was administered i.p. once a week at a dose of 10 mg/kg. Antitumour activities were estimated by the inhibition of tumour volume (FIG. 12A), which was measured with calipers. Each point represents mean tumour volume calculated from 10 animals per experimental group. Animals were sacrificed and tumour weights taken at the end of the study (FIG. 12C). […] Cisplatin was administered intravenously once a week for four weeks at a dose of 4 mg/kg. Taxol was administered intravenously once a week for four weeks at a dose of 20 mg/kg. Antitumour activities were estimated by the inhibition of tumour volume, which was measured with caliper. Each point represents mean tumour volume calculated from 9-10 animals per experimental group. […] Cisplatin was administered intravenously once a week for four weeks at a dose of 4 mg/kg. Antitumour activities were estimated by the inhibition of tumour volume, which was measured with caliper. Each point represents mean tumour volume calculated from 10 animals per experimental group. At the end of the study the animals were sacrificed and tumours weighed. […] Taxol was administered i.p. once a week at a dose of 10 mg/kg. Anti-tumour activity was estimated by the inhibition of tumour volume, which was measured with caliper. Each point represents mean tumour volume calculated from 10 animals per experimental group. In addition animals were sacrificed and tumour weights taken at the end of the study. […] CPT-11 was administered i.p. for 5 days at a dose of 20 mg/kg/day. Antitumour activities were estimated by the inhibition of tumour volume, which was measured with caliper. Each point represents mean tumour volume calculated from 10 animals per experimental group. Tumour weights were measured after animals were sacrificed at the end of the treatment. These cells are not resistant to CPT-11 which was used as a positive control.

Data set [2] concerns SIHA human cervical cancer cells. Description: SIHA cervical tumour growth in SCID mice (3.10). It is filed as in vivo, human cells in mice. On the procedure:
Treatments lasted for 14 days thereafter. Antitumour activities were estimated by the inhibition of tumour volume, which was measured with a caliper on four different occasions over the treatment period. Each point represents mean tumour volume calculated from 5 animals per experimental group. […] Control animals (control) received saline alone for the same period. At the end of the treatments, the animals were sacrificed, tumours were excised and their weights were measured. Each bar represents mean tumour weight calculated from 6 animals per experimental group. […] Treatments lasted for 24 days thereafter. Antitumour activities were estimated by the inhibition of tumour volume, which was measured with a caliper at two-day intervals over the treatment period. Each point represents mean tumour volume calculated from 4 animals per experimental group. […] Treatments lasted for 24 days thereafter. Antitumour activities were estimated by the inhibition of tumour volume, which was measured with a caliper at two-day intervals over the treatment period. Each point represents mean tumour volume calculated from 4 animals per experimental group. […] Each point represents mean tumour volume calculated from 5 animals per experimental group. […] Antitumour activities were estimated by the inhibition of tumour volume, which was measured with a caliper on four different occasions over 16-day period. Each point represents mean tumour volume calculated from 5 animals per experimental group. […] Antitumour activities were estimated by the inhibition of tumour volume, which was measured with a caliper at two-day intervals over the treatment period. Each point represents mean tumour volume calculated from 5 animals per experimental group. […] Antitumour activities were estimated by the inhibition of tumour volume, which was measured with a caliper at various time intervals over the span of 30 days. Each point represents mean tumour volume calculated from 6 animals per experimental group. […] Antitumour activities were estimated by the inhibition of tumour volume, which was measured with a caliper. […]

The test system of data set [3] is Human taxol-resistant promyelocytic leukaemia cells (HL-60). Nature of the data set: HL-60 taxol-resistant promyelocytic leukaemia tumour in SCID mice (2.7). It counts as in vivo, human cells in mice. The conditions noted are these: SEQ ID NO:1 10 mg/kg i.v. every other day. On the procedure: BxPC-3 is a gemcitabine resistant call line. […] Gemcitabine was administered intravenously every three days at a dose of 100 mg/kg. Antitumour activities were estimated by the inhibition of tumour volume, which was measured with caliper. Each point represents mean tumour volume calculated from 10 animals per experimental group. […] Hela S3 is a hydroxyurea resistant cell line. […] Hydroxyurea was administered intraperitoneally every day at a dose of 250 mg/kg for 10 days. Cisplatin was administered intravenously once a week for three weeks at a dose of 4 mg/kg. Antitumour activities were estimated by the inhibition of tumour volume, which was measured with caliper. Each point represents mean tumour volume calculated from 10 animals per experimental group. […] Cisplatin was administered intravenously once a week for three weeks at a dose of 4 mg/kg. Taxol was administered intravenously once a week for three weeks at a dose of 10 mg/kg. Antitumour activities were estimated by the inhibition of tumour volume, which was measured with caliper. Each point represents mean tumour volume calculated from 10 animals per experimental group. […] Taxol was administered i.p. once a week at a dose of 10 mg/kg. Antitumour activities were estimated by the inhibition of tumour volume (FIG. 12A), which was measured with calipers. Each point represents mean tumour volume calculated from 10 animals per experimental group. Animals were sacrificed and tumour weights taken at the end of the study (FIG. 12C). […] Cisplatin was administered intravenously once a week for four weeks at a dose of 4 mg/kg. Taxol was administered intravenously once a week for four weeks at a dose of 20 mg/kg. Antitumour activities were estimated by the inhibition of tumour volume, which was measured with caliper. Each point represents mean tumour volume calculated from 9-10 animals per experimental group. […] Cisplatin was administered intravenously once a week for four weeks at a dose of 4 mg/kg. Antitumour activities were estimated by the inhibition of tumour volume, which was measured with caliper. Each point represents mean tumour volume calculated from 10 animals per experimental group. At the end of the study the animals were sacrificed and tumours weighed. […] Taxol was administered i.p. once a week at a dose of 10 mg/kg. Anti-tumour activity was estimated by the inhibition of tumour volume, which was measured with caliper. Each point represents mean tumour volume calculated from 10 animals per experimental group. […] Antitumour activities were estimated by the inhibition of tumour volume, which was measured with caliper. Each point represents mean tumour volume calculated from 10 animals per experimental group. Tumour weights were measured after animals were sacrificed at the end of the treatment. […]

We go through one substance from patent publication US7968526B2, “Antisense oligonucleotides directed to ribonucleotide reductase R2 and uses thereof in the treatment of cancer” (Lorus Therapeutics Inc., priority 2003, dated 2011).

Entries after “also recorded” stand apart in the source; their conditions may differ.

With “5′-GGCTAAATCGCTCCACCAAG-3′ (all phosphorothioate, sugars by position and methylation of C not given here) [SEQ ID NO: 1, fully phosphorothioated antisense oligonucleotide that hybridizes to the coding region of R2 mRNA]”, the “Tumour weight as % of saline control” value in data set [1] (first of two printed values (study and repeat)) stood at 18%; in data set [1] (second of two printed values (study and repeat)) it was 41%; in data set [3] (HL-60 (leukemia), Taxol resistant, SCID, Taxol 10 mg/kg i.p. weekly), 38%. Moreover, the “Antitumour effect (FIG. 12)” value in data set [1] (MDA-CDDP-S4 Cisplatin-resistant, CB-17 SCID mice) is “significant reduction of tumour weight compared to saline control; also recorded: superior to the inhibitory effects observed with Taxol”. In data set [2] (Human Cervical Carcinoma^2), the “Inhibition of tumour weight” value is recorded as approximately 90%. Besides, the “Inhibition of tumour size” value in data set [2] (Human Cervical Carcinoma^2 in SCID mice, Day 22 after tumour implantation) was “Inhibition of tumour size by approximately 90%”. In addition, the “Inhibitory effect on tumour growth (tumour volume and weight, FIG. 22)” value in data set [2] (SIHA, SCID mice, 10 mg/kg i.v. every other day, 16 days) is reported as “strong inhibitory effects on the growth of human cervical carcinoma”. For the same substance, the “Antitumour effect (FIG. 15)” value in data set [3] (HL-60 taxol-resistant, SCID mice, taxol 10 mg/kg i.p. weekly) was “significant reduction of tumour weight compared to saline control”.
